In ChEMBL document CHEMBL1157988, “Loloatins A-D, cyclic decapeptide antibiotics produced in culture by a tropical marine bacterium” (1999):
In brackets after ≈: the same amount, converted by molar mass. Square brackets hold non-standard residues; d marks the D form. Peptide text beside a SMILES is read from it. Orn = NCCC[C@H](N)C(=O)O

Legend:
Assay type in all cases: functional
Escherichia coli = experiment: Antimicrobial activity against Escherichia coli
Enterococcus faecium [1] = experiment: Antimicrobial activity against Enterococcus faecium
[2] = system: Stenotrophomonas maltophilia; experiment: Antimicrobial activity against Xanthomonas maltophilia
Burkholderia cepacia = experiment: Antimicrobial activity against Pseudomonas cepacia
Streptococcus pneumoniae [3] = experiment: Antimicrobial activity against Streptococcus pneumoniae
Staphylococcus aureus [4] = experiment: Antimicrobial activity against methicillin-resistant Staphylococcus aureus
Pseudomonas aeruginosa = experiment: Antimicrobial activity against Pseudomonas aeruginosa
Candida albicans = experiment: Antimicrobial activity against Candida albicans
Staphylococcus aureus [5] = experiment: Antimicrobial activity against Staphylococcus aureus
Enterococcus faecalis [6] = experiment: Antimicrobial activity against Enterococcus faecalis
Enterococcus faecium [7] = experiment: Antimicrobial activity against vancomycin-resistant Enterococcus faecium
Streptococcus pneumoniae [8] = experiment: Antimicrobial activity against penicillin-resistant Streptococcus pneumoniae
Enterococcus faecalis [9] = experiment: Antimicrobial activity against vancomycin-resistant Enterococcus faecalis

Row | Structure (SMILES) | MIC (Escherichia coli) | MIC (Enterococcus faecium [1]) | MIC [2] | MIC (Burkholderia cepacia) | MIC (Streptococcus pneumoniae [3]) | MIC (Staphylococcus aureus [4]) | MIC (Pseudomonas aeruginosa) | MIC (Candida albicans) | MIC (Staphylococcus aureus [5]) | MIC (Enterococcus faecalis [6]) | MIC (Enterococcus faecium [7]) | MIC (Streptococcus pneumoniae [8]) | MIC (Enterococcus faecalis [9])
1 | CC(C)C[C@@H]1NC(=O)[C@H](CCCN)NC(=O)[C@H](C(C)C)NC(=O)[C@H](Cc2ccc(O)cc2)NC(=O)[C@H](CC(=O)O)NC(=O)[C@H](CC(N)=O)NC(=O)[C@@H](Cc2ccccc2)NC(=O)[C@H](Cc2ccccc2)NC(=O)[C@@H]2CCCN2C(=O)[C@@H](Cc2ccc(O)cc2)NC1=O [LOLOATIN A] | > 32 µg/mL | 4 µg/mL (≈ 3.14 µM) | > 32 µg/mL | > 32 µg/mL | 1 µg/mL (≈ 0.785 µM) | 4 µg/mL (≈ 3.14 µM) | > 32 µg/mL | 8 µg/mL (≈ 6.28 µM) | 4 µg/mL (≈ 3.14 µM) | 4 µg/mL (≈ 3.14 µM) | 4 µg/mL (≈ 3.14 µM) | 2 µg/mL (≈ 1.57 µM) | 4 µg/mL (≈ 3.14 µM)
2 | CC(C)C[C@@H]1NC(=O)[C@H](CCCN)NC(=O)[C@H](C(C)C)NC(=O)[C@H](Cc2c[nH]c3ccccc23)NC(=O)[C@H](CC(=O)O)NC(=O)[C@H](CC(N)=O)NC(=O)[C@@H](Cc2ccccc2)NC(=O)[C@H](Cc2ccccc2)NC(=O)[C@@H]2CCCN2C(=O)[C@@H](Cc2ccc(O)cc2)NC1=O [LOLOATIN B] | > 32 µg/mL | 2 µg/mL (≈ 1.54 µM) | > 32 µg/mL | > 32 µg/mL | 1 µg/mL (≈ 0.771 µM) | 2 µg/mL (≈ 1.54 µM) | > 32 µg/mL | 8 µg/mL (≈ 6.17 µM) | 2 µg/mL (≈ 1.54 µM) | 2 µg/mL (≈ 1.54 µM) | 2 µg/mL (≈ 1.54 µM) | 1 µg/mL (≈ 0.771 µM) | 2 µg/mL (≈ 1.54 µM)
3 | CC(C)C[C@@H]1NC(=O)[C@H](CCCN)NC(=O)[C@H](C(C)C)NC(=O)[C@H](Cc2c[nH]c3ccccc23)NC(=O)[C@H](CC(=O)O)NC(=O)[C@H](CC(N)=O)NC(=O)[C@@H](Cc2ccccc2)NC(=O)[C@H](Cc2c[nH]c3ccccc23)NC(=O)[C@@H]2CCCN2C(=O)[C@@H](Cc2ccc(O)cc2)NC1=O [LOLOATIN C] (cyclo(DWV[Orn]L[dY]PW[dF]N)) | 1 µg/mL (≈ 0.749 µM) | 2 µg/mL (≈ 1.5 µM) | > 32 µg/mL | > 32 µg/mL | < 0.25 µg/mL | 0.5 µg/mL (≈ 0.374 µM) | > 32 µg/mL | 8 µg/mL (≈ 5.99 µM) | 0.5 µg/mL (≈ 0.374 µM) | 1 µg/mL (≈ 0.749 µM) | 2 µg/mL (≈ 1.5 µM) |  | 1 µg/mL (≈ 0.749 µM)
4 | CC(C)C[C@@H]1NC(=O)[C@H](CCCN)NC(=O)[C@H](C(C)C)NC(=O)[C@H](Cc2c[nH]c3ccccc23)NC(=O)[C@H](CC(=O)O)NC(=O)[C@H](CC(N)=O)NC(=O)[C@@H](Cc2ccccc2)NC(=O)[C@H](Cc2ccccc2)NC(=O)[C@@H]2C[C@@H](O)CN2C(=O)[C@@H](Cc2ccc(O)cc2)NC1=O [LOLOATIN D] | > 32 µg/mL | 8 µg/mL (≈ 6.1 µM) | > 32 µg/mL | > 32 µg/mL | 4 µg/mL (≈ 3.05 µM) | 8 µg/mL (≈ 6.1 µM) | > 32 µg/mL | 16 µg/mL (≈ 12.2 µM) | 8 µg/mL (≈ 6.1 µM) | 8 µg/mL (≈ 6.1 µM) | 8 µg/mL (≈ 6.1 µM) | 4 µg/mL (≈ 3.05 µM) | 8 µg/mL (≈ 6.1 µM)
